Test results: PubChem BioAssay (NCI)
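Five compound concentrations were applied to cells in 96-well plates for 48 hours; endpoints were derived by simple linear interpolation of the resulting dose-response curve. The concentration for 50% growth inhibition is given as GI50. TGI: total growth inhibition.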

Assays:
Test in all cases: growth of human tumour cells (NCI), 48 h
[1] = system: MOLT-4 leukemia
[2] = system: TK-10 renal
[3] = system: K-562 leukemia
[4] = system: SK-MEL-5 melanoma
[5] = system: RPMI-8226 leukemia
[6] = system: EKVX NSCLC
[7] = system: DU-145 prostate
[8] = system: A498 renal
[9] = system: RXF 393 renal
[10] = system: A549 NSCLC
[11] = system: OVCAR-3 ovarian
[12] = system: SNB-75 CNS
[13] = system: HL-60(TB) leukemia
[14] = system: MDA-MB-231 breast
[15] = system: SK-OV-3 ovarian
[16] = system: MDA-MB-435
[17] = system: NCI-H226 lung
[18] = system: HCT-116 colon
[19] = system: MCF7 breast
[20] = system: OVCAR-8 ovarian
[21] = system: HT29 colon
[22] = system: HCC-2998 colon
[23] = system: SNB-19 CNS
[24] = system: KM12 colon
[25] = system: CAKI-1 renal
[26] = system: MDA-MB-468 breast
[27] = system: ACHN renal
[28] = system: UACC-257 melanoma
[29] = system: SF-268 CNS
[30] = system: SK-MEL-28 melanoma
[31] = system: HS 578T breast
[32] = system: SF-539 CNS
[33] = system: MALME-3M melanoma
[34] = system: UACC-62 melanoma
[35] = system: UO-31 renal
[36] = system: LOX IMVI melanoma
[37] = system: PC-3 prostate
[38] = system: CCRF-CEM leukemia
[39] = system: NCI-H522 lung
[40] = system: HOP-62 NSCLC
[41] = system: M14 melanoma
[42] = system: NCI-H460 lung
[43] = system: OVCAR-5 ovarian
[44] = system: HOP-92 NSCLC
[45] = system: SF-295 CNS
[46] = system: COLO 205 colon
[47] = system: BT-549 breast
[48] = system: IGROV1 ovarian
[49] = system: HCT-15 colon
[50] = system: NCI-H23 lung
[51] = system: OVCAR-4 ovarian
[52] = system: 786-0 renal
[53] = system: SR leukemia
[54] = system: T-47D breast
[55] = system: U251 CNS
[56] = system: SW-620 colon
[57] = system: SN12C renal

Structure (SMILES): CC1(C)CC[C@]2(C(=O)Nc3ccc(Br)cc3)CC[C@]3(C)C(=CCC4[C@@]5(C)C[C@@H](O)[C@H](O)[C@@](C)(CO)C5CC[C@]43C)C2C1 (some centres undefined)
- GI50 [1]: 13.2 µM
- TGI [1]: 50 µM
- GI50 [2]: 19.8 µM
- TGI [2]: 49.9 µM
- GI50 [3]: 23.1 µM
- TGI [3]: > 100 µM
- GI50 [4]: 15.7 µM
- TGI [4]: 29.1 µM
- GI50 [5]: 19.5 µM
- TGI [5]: 72.3 µM
- GI50 [6]: 16.6 µM
- TGI [6]: 41.6 µM
- GI50 [7]: 26.7 µM
- TGI [7]: 81 µM
- GI50 [8]: 19 µM
- TGI [8]: 34.6 µM
- GI50 [9]: 12.6 µM
- TGI [9]: 25.6 µM
- GI50 [10]: 30.5 µM
- TGI [10]: > 100 µM
- GI50 [11]: 17.1 µM
- TGI [11]: 34 µM
- GI50 [12]: 14.5 µM
- TGI [12]: 60.7 µM
- GI50 [13]: 18.2 µM
- TGI [13]: 50.7 µM
- GI50 [14]: 15.3 µM
- TGI [14]: 30 µM
- GI50 [15]: 16.5 µM
- TGI [15]: 38.6 µM
- GI50 [16]: 15.9 µM
- TGI [16]: 31.4 µM
- GI50 [17]: 16.8 µM
- TGI [17]: 34.2 µM
- GI50 [18]: 13.5 µM
- TGI [18]: 26.9 µM
- GI50 [19]: 14.9 µM
- TGI [19]: 34.9 µM
- GI50 [20]: 24 µM
- TGI [20]: 73.7 µM
- GI50 [21]: 12.9 µM
- TGI [21]: 26.7 µM
- GI50 [22]: 16.2 µM
- TGI [22]: 31 µM
- GI50 [23]: 25.8 µM
- TGI [23]: > 100 µM
- GI50 [24]: 18.1 µM
- TGI [24]: 38.1 µM
- GI50 [25]: 12.6 µM
- TGI [25]: 40.8 µM
- GI50 [26]: 15 µM
- TGI [26]: 29.4 µM
- GI50 [27]: 14.6 µM
- TGI [27]: 28.2 µM
- GI50 [28]: 20.2 µM
- TGI [28]: 56.1 µM
- GI50 [29]: 20.9 µM
- TGI [29]: 71.9 µM
- GI50 [30]: 16.1 µM
- TGI [30]: 35.8 µM
- GI50 [31]: 20.1 µM
- TGI [31]: 63.5 µM
- GI50 [32]: 15.9 µM
- TGI [32]: 30 µM
- GI50 [33]: 16.1 µM
- TGI [33]: 30.4 µM
- GI50 [34]: 12 µM
- TGI [34]: 25.2 µM
- GI50 [35]: 13.5 µM
- TGI [35]: 33.4 µM
- GI50 [36]: 17.8 µM
- TGI [36]: 33 µM
- GI50 [37]: 14.5 µM
- TGI [37]: 40.8 µM
- GI50 [38]: 23.2 µM
- TGI [38]: 75.9 µM
- GI50 [39]: 17.1 µM
- TGI [39]: 34.6 µM
- GI50 [40]: 15 µM
- TGI [40]: 31.8 µM
- GI50 [41]: 17.4 µM
- TGI [41]: 40.8 µM
- GI50 [42]: 17.5 µM
- TGI [42]: 38.3 µM
- GI50 [43]: 13.2 µM
- TGI [43]: 27.2 µM
- GI50 [44]: 14.5 µM
- TGI [44]: 31.6 µM
- GI50 [45]: 15.8 µM
- TGI [45]: 30.6 µM
- GI50 [46]: 15.2 µM
- TGI [46]: 32.8 µM
- GI50 [47]: 16.4 µM
- TGI [47]: 33.2 µM
- GI50 [48]: 17.1 µM
- TGI [48]: 37.7 µM
- GI50 [49]: 14.6 µM
- TGI [49]: 29 µM
- GI50 [50]: 17.1 µM
- TGI [50]: 33.6 µM
- GI50 [51]: 15.1 µM
- TGI [51]: 35.8 µM
- GI50 [52]: 16.7 µM
- TGI [52]: 31.5 µM
- GI50 [53]: 19.1 µM
- TGI [53]: > 100 µM
- GI50 [54]: 13.4 µM
- TGI [54]: 30.4 µM
- GI50 [55]: 16.6 µM
- TGI [55]: 33.5 µM
- GI50 [56]: 25.7 µM
- TGI [56]: > 100 µM
- GI50 [57]: 16.6 µM
- TGI [57]: 31.8 µM
